Calls of active or inactive are those of the source.
Tests used:
[1] = target: Voltage-gated inwardly rectifying potassium channel KCNH2 (Homo sapiens, UniProt Q12809); conditions: Potency;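 further: confirmatory quantitative high-throughput screen measuring inhibition of hERG channel activity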
[2] = target: T1, Mannose-6-phosphate isomerase (Homo sapiens, UniProt P34949); experiment: PMI enzyme inhibitors, confirmation, biochemical, fluorescence intensity (AID 1535)
T1 sequence (P34949 whole entry): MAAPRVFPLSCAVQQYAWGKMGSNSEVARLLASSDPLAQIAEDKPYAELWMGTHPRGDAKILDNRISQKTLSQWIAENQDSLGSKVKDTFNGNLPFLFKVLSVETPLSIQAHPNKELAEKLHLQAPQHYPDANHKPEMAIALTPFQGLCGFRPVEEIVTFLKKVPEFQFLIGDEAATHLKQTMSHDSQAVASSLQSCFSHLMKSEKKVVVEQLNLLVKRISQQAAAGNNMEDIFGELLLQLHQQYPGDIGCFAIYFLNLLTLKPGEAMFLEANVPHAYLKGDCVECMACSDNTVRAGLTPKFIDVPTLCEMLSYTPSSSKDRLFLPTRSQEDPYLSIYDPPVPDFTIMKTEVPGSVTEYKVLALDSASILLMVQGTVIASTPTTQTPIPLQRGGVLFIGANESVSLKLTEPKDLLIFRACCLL

Phosphomannomutase 2 = Phosphomannomutase 2 (Homo sapiens, UniProt O15305); experiment: Counter screen SAR assay for PMM2 inhibitors via a fluorescence intensity assay. [Related pubchem assays (depositor defined):AID1545, AID1574]
HEK293 [3] = experiment: cells; format: functional, cell-based; conditions: Homo sapiens
[4] = target: T2, Corticotropin-releasing factor receptor 2/Corticotropin-releasing factor-binding protein (Homo sapiens, UniProt P24387+Q13324); experiment: Dose Response confirmation of uHTS hits for small molecule antagonists of the CRF-binding protein and CRF-R2 receptor complex.; format: functional; conditions: read-out: IC50_Mean
T2 sequence (Q13324 whole entry): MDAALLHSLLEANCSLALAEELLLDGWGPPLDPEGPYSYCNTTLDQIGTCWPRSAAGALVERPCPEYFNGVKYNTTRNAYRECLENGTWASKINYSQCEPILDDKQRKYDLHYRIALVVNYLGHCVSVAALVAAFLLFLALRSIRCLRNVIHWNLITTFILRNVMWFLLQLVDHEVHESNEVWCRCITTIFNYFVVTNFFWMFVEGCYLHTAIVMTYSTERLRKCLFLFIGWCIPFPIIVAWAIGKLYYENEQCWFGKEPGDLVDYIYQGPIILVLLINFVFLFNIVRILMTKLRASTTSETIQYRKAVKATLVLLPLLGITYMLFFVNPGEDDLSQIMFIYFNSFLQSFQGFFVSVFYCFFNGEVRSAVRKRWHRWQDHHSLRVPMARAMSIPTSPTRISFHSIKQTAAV
T2 sequence (P24387 whole entry): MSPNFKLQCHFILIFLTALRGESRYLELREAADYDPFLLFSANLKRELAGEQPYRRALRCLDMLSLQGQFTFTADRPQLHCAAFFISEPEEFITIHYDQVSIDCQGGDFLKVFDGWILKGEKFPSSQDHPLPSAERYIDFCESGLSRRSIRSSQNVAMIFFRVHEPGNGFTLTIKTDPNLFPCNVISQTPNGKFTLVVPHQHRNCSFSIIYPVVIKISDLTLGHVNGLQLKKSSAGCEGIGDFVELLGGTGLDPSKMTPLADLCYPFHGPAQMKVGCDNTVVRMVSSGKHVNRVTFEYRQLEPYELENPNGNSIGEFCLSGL

HEK293 [5] = experiment: NOD1 signaling inhibitors, primary screen, cell-based, luminescence, uHTS (AID 1578); format: functional; conditions: Homo sapiens
[6] = target: Nucleotide-binding oligomerization domain-containing protein 1 (Homo sapiens, UniProt Q9Y239); experiment: NOD1 signaling inhibitors, SAR follow-up, revised (AID 2333); format: functional
[7] = target: T2, Corticotropin-releasing factor receptor 2/Corticotropin-releasing factor-binding protein; experiment: activators of CRF receptor 2 with binding protein – uHTS hits, confirmation (AID 602473); format: functional; conditions: read-out: EC50_Mean
[8] = CRF-BP/CRF-R2 complex antagonists, dose response, cell-based, uHTS hits, 384-well (AID 651639); format: functional, Homo sapiens; conditions: read-out: IC50_Mean
HEK293 [9] = experiment: NOD2 signaling inhibitors in MDP-stimulated cells, cell-based, uHTS, luminescence (AID 2001); format: functional; conditions: Homo sapiens
HEK293 [10] = experiment: cells; format: functional, cell-based; conditions: Homo sapiens; remark: listed apart in the source
HEK293 [11] = experiment: cells; conditions: Homo sapiens
HeLa = experiment: HeLa cell cytotoxicity, dose response, cytotoxicity control, 24 h, cherry-picked samples (AID 504726); format: functional, cell-based; conditions: Homo sapiens;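 further: potency for cytotoxicity as loss of luminescence signal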
Ephrin type-A receptor 4 = Ephrin type-A receptor 4 (Mus musculus, UniProt Q03137); experiment: inhibitors of EphA4 binding to KYL peptide, primary screen, biochemical, colorimetric, mouse EphA4 (AID 689); format: functional
ORF 73 = ORF 73 (Human herpesvirus 8, UniProt O40947); experiment: inhibitors of C-LANA binding to LBS DNA, dose response, biochemical, fluorescence polarization, cherry-picked samples (AID 504725); set-up: species or system Human gammaherpesvirus 8;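 further: fluorescence polarization of a labeled DNA duplex reporting LANA DNA binding; potency is for inhibitors that block LANA binding to the DNA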
[12] = target: UDP-galactopyranose mutase (Mycobacterium tuberculosis, UniProt P9WIQ1); experiment: Inhibitors of Mycobacterium tuberculosis UDP-galactopyranose mutase (UGM) enzyme Measured in Biochemical System Using Plate Reader - 2105-02_Inhibitor_Dose_CherryPick_Activity. [Related pubchem assays (depositor defined):AID504439]
Chain of UDP-galactopyranose mutase (P9WIQ1 whole entry): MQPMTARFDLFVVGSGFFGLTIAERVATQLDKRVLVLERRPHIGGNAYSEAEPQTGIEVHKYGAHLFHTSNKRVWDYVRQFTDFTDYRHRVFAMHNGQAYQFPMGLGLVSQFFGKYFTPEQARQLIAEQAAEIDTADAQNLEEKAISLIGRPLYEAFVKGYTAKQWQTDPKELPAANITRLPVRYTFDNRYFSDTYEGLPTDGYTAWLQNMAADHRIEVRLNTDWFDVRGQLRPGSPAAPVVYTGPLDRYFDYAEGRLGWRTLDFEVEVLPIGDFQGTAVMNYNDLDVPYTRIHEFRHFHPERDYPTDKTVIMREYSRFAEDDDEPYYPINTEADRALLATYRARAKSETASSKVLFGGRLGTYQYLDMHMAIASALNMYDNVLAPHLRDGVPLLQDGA

Chain of Phosphomannomutase 2 (O15305 whole entry): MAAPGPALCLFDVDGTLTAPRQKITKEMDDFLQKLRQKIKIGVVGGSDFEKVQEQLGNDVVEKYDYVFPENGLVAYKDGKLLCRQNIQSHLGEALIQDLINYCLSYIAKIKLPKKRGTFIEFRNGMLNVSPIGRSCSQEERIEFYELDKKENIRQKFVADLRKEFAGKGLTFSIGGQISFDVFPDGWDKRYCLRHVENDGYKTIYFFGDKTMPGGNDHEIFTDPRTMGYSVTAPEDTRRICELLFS
Chain of Ephrin type-A receptor 4 (Q03137 whole entry): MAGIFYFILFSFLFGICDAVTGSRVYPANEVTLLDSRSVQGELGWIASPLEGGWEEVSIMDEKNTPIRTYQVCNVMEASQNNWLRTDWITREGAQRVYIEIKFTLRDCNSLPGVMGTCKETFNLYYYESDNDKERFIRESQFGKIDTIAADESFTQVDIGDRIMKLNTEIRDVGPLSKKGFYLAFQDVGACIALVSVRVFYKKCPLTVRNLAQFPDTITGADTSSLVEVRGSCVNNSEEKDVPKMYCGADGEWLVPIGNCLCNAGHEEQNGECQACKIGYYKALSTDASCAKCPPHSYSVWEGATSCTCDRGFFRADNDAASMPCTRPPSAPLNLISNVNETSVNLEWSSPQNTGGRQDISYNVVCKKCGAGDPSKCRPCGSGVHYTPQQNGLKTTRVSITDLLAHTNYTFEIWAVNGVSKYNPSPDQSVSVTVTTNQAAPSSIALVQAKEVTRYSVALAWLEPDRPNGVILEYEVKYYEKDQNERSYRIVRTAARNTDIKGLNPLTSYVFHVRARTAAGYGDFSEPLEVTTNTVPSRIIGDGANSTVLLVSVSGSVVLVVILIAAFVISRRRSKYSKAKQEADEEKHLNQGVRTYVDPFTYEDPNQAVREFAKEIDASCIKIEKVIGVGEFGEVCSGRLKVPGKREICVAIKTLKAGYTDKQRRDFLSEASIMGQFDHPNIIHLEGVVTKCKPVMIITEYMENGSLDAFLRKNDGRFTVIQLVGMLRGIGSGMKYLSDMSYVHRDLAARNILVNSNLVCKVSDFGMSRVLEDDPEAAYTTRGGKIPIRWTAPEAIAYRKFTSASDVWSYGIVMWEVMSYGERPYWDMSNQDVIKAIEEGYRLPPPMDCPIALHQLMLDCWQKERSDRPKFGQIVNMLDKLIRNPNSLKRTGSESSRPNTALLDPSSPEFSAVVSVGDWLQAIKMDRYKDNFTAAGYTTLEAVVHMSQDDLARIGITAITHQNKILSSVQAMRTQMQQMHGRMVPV
Chain of Nucleotide-binding oligomerization domain-containing protein 1 (Q9Y239 whole entry, the tested form may be a part): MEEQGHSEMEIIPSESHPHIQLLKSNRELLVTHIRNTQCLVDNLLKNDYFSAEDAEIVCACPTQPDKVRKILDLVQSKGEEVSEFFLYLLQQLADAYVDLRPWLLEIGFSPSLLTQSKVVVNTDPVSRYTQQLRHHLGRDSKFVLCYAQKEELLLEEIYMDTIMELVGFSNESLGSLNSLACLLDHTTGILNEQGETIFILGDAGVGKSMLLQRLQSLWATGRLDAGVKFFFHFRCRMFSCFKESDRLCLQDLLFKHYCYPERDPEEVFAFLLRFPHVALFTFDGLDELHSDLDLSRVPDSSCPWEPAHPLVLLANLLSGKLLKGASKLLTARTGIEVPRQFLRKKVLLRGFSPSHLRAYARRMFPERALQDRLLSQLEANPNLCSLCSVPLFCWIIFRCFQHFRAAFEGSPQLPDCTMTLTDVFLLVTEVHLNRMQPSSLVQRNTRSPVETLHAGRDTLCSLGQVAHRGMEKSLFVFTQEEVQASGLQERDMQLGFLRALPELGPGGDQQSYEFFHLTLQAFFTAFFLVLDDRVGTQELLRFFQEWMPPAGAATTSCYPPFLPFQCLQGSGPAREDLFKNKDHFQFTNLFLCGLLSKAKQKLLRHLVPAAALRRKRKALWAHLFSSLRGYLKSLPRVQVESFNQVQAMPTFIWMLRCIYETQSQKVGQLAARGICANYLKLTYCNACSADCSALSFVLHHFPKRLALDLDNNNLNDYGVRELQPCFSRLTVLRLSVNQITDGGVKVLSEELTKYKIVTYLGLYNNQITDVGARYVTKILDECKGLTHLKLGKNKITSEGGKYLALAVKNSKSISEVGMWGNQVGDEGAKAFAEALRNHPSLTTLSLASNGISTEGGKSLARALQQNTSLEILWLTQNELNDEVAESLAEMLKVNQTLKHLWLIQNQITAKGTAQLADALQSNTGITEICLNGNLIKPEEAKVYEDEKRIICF
Chain of ORF 73 (O40947 whole entry): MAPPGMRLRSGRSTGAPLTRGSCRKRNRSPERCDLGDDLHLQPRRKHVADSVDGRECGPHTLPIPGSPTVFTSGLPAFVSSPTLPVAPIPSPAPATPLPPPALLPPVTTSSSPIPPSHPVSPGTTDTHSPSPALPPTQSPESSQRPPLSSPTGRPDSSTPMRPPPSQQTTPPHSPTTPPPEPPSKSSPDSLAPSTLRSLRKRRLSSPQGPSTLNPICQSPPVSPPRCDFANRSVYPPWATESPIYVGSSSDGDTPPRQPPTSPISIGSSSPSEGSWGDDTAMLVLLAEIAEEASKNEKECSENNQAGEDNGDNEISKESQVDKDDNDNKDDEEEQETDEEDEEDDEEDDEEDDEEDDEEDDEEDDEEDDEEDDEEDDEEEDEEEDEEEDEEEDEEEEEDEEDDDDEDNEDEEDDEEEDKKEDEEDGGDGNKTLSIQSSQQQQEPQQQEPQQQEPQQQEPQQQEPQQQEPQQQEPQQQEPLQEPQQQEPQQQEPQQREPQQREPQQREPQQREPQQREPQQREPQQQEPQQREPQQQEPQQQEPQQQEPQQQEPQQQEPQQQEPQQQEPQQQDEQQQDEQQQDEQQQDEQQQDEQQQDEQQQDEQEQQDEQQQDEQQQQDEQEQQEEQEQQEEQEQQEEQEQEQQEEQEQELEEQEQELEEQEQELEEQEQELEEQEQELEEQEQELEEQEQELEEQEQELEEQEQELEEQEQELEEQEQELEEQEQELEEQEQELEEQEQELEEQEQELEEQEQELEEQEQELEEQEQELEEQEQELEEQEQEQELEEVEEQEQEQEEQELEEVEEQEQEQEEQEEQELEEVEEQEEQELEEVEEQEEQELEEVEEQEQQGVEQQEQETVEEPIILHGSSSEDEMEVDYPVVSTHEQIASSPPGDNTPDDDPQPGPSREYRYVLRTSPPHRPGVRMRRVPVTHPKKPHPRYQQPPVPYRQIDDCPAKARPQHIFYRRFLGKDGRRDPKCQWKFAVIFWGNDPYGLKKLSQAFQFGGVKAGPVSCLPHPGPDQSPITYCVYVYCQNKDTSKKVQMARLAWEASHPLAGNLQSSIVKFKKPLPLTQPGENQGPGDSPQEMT
Chain of Voltage-gated inwardly rectifying potassium channel KCNH2 (Q12809 whole entry): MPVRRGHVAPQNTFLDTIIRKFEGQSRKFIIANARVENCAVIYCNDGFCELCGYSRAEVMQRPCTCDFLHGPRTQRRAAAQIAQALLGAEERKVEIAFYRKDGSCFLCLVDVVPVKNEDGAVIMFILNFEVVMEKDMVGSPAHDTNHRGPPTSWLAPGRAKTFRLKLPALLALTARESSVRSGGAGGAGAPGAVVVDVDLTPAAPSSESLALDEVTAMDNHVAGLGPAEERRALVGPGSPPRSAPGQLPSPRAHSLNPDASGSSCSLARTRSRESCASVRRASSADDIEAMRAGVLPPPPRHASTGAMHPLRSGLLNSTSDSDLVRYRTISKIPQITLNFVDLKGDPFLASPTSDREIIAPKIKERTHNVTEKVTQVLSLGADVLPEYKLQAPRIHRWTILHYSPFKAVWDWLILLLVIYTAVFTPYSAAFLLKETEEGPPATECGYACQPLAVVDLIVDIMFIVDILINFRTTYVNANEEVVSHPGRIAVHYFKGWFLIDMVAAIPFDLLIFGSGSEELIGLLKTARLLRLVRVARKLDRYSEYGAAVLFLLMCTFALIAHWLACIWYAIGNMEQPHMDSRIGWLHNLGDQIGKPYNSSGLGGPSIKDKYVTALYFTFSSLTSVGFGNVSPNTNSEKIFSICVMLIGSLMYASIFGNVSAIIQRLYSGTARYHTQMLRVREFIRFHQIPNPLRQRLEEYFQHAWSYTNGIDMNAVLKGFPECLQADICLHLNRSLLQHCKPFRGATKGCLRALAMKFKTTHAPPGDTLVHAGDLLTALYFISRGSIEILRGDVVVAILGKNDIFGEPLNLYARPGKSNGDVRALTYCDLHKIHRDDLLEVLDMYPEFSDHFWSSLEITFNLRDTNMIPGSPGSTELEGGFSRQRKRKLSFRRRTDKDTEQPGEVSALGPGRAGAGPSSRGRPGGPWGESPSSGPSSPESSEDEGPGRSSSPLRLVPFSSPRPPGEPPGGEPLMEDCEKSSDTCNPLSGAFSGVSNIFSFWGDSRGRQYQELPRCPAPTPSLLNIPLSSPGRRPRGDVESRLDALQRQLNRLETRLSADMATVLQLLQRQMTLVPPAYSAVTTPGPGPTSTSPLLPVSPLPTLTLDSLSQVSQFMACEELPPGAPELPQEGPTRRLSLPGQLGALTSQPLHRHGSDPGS

## O=C(OCCN1CCCCC1)c1c[nH]c2ccccc12
[1]
  AC50: 20 µM (inconclusive)

## COc1cc(N=c2ssnc2Cl)cc(OC)c1OC
[2]
  IC50: 2.91 µM (active)
Phosphomannomutase 2
  IC50: > 100 µM (inactive)

## O=C(Nc1nc2c(F)cc(F)cc2s1)c1ccc([N+](=O)[O-])o1
HEK293 [3]
  IC50: > 20 µM (inactive)
[4]
  IC50: 4.95 µM (active)
HEK293 [5]
  EC50: 12 µM (active)
[6]
  IC50: 7.18 µM (active)
[7]
  EC50: > 53 µM (inactive)
[8]
  IC50: > 20 µM (inactive)
HEK293 [9]
  IC50: 15.5 µM (inactive)
HEK293 [10]
  IC50: > 20 µM (inactive)
HEK293 [11]
  IC50: > 20 µM (inactive)

## CCCCCn1nc(-c2ccccc2)c2nc3ccccc3nc21
HeLa
  AC50: > 350 µM (inactive)
Ephrin type-A receptor 4
  IC50: 6.11 µM (active)
ORF 73
  AC50: 56.5 µM (active)
[7]
  EC50: 4.97 µM (active)
[12]
  AC50: 31.7 µM (active)

— ChEMBL document CHEMBL1201862, “PubChem BioAssay data set” (2004)
